Experimental data published in US12264156B2, “Compounds and pharmaceutical compositions thereof for the treatment of diseases” (GALAPAGOS NV, priority 2018, dated 2025).

Key:
SIK1 = biological target: T1, SIK1 (Homo sapiens, UniProt P57059); experiment: ADP-Glo kinase assay, SIK1; assay type: biochemical; settings: ADP-Glo SIK kinase assay
T1 construct: purchased Carna Biosciences 02-131
Method in brief: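 Enzyme–substrate mix was started with ATP and incubated 120 min at RT. ADP formed was quantified by ADP-Glo: 40 min ATP depletion, then 30 min detection reagent converting ADP to ATP for luciferase luminescence, which rises with kinase activity. Controls: 1% DMSO and 10 μM staurosporine (final).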

[1] = tested on: LPS triggered IL-10 secretion in monocyte-derived macrophages (MdM); experiment: MdM assay: LPS-triggered IL-10 (ELISA); assay type: cell-based, human; settings: LPS 200 ng/mL, supernatant after 2 h, maximal fold change vs LPS only
Experimental: SIK inhibition inhibits TNFα and increases IL-10 release in LPS triggered monocyte-derived macrophages (MdM) and dendritic […] al. 2012; Sundberg et al. 2014; Ozanne et al. 2015). This assay evaluates illustrative compounds of the invention for their inhibition of LPS-induced TNFα and LPS triggered IL-10 secretion in monocyte-derived macrophages. PBMCs are isolated from human blood samples (buffycoats). The buffy coat is aseptically transferred into a 50 mL Falcon tube, and diluted 1/2 in PBS. Falcon tubes are filled with 20 mL LymphoprepTM, on top of which 25 mL of the buffy coat is carefully added, tubes are centrifuged for 35 min at 400 g in temperature controlled centrifuge, without brake, at 25° C. PBMCs are aspirated from the white interface layer between sample and LymphoprepTM. PBMCs are washed five times in PBS. Cells are resuspended in RPMI 1640 complete medium supplemented with 10% FBS, 1% P/S, and cell density is determined using a hematologic analyzer (Sysmex XS-500i). PBMCs are centrifuged at 300×g for 10 min and resuspended at a density of 1.0*10^7 cells/80 μL Miltenyi buffer (PBS, pH 7.4, 1% FBS, 2 mM EDTA). Starting from this point of the protocol all steps are performed on ice. 20 μL of CD14+ micro-beads are added per 1.0*10^7 cells, the tube is mixed and incubated for 15 min in the fridge at 4° C. Cell suspension volume is adjusted to total volume of 100 mL using Miltenyi buffer, mixed gently and subsequently centrifuged for 10 min at 300×g. Supernantant is discarded and cell pellet is resuspended in 12 mL of Miltenyi buffer. Four LS columns are placed in the MACS Separator (magnet) from Miltenyi Biotec, and are prewet by rinsing with 3 mL of MACS buffer per column. Three mL of cell suspension is added onto the column (max 1*10^8 of labelled cells/column), and columns are subsequently washed 3 times with 3 mL of Miltenyi buffer. The columns are removed from the magnets, and 5 mL of Miltenyi buffer are added to the column to flush out the CD14+ fraction by pushing the plunger into the column. The flushed fractions are collected in a fresh 50 mL Falcon and volume is adjusted to 30 mL using Miltenyi buffer, cells are centrifuged for 10 min at 300×g. The obtained cell pellet is resuspended in 10 mL RPMI w/o FBS, and cell density is determined using a hematologic analyser (Sysmex XS-500i). 100 000 cells are seeded per well of a 96-well plate for differentiation to MdM in RPMI 1640 medium supplemented with 10% FBS, 1% P/S and 100 ng/mL rhM-CSF. On day 5 the medium is refreshed with 100 μL RPMI 1640 medium supplemented with 10% FBS, 1% P/S and 100 ng/mL rhM-CSF. On day 10, MdMs are triggered and compound is added. A compound dilution plate is made in 100% DMSO by 3-fold dilution of 10 mM stock solution. An intermediate dilution plate (10× final concentration) is made by diluting the compound dilution plate 50-fold in RPMI medium. Medium is carefully removed from cell plates using multichannel pipette, and replaced by 80 μL fresh medium. 10 μL of the 10× final concentration compound is added to the cells and incubated for 1 hour at 37° C. before addition of trigger. No trigger conditions/trigger conditions are spiked with equal final DMSO concentrations of 0.2% DMSO. 10 μL of 10×LPS (final conc. 200 ng/mL) solution are added to all wells except for the 'no trigger wells' where 10 μL medium is added. Supernatant is collected after 2 h (IL-10 determination) and after 20 h (TNFα determination) of LPS triggering. […]

T1 sequence (P57059 whole entry): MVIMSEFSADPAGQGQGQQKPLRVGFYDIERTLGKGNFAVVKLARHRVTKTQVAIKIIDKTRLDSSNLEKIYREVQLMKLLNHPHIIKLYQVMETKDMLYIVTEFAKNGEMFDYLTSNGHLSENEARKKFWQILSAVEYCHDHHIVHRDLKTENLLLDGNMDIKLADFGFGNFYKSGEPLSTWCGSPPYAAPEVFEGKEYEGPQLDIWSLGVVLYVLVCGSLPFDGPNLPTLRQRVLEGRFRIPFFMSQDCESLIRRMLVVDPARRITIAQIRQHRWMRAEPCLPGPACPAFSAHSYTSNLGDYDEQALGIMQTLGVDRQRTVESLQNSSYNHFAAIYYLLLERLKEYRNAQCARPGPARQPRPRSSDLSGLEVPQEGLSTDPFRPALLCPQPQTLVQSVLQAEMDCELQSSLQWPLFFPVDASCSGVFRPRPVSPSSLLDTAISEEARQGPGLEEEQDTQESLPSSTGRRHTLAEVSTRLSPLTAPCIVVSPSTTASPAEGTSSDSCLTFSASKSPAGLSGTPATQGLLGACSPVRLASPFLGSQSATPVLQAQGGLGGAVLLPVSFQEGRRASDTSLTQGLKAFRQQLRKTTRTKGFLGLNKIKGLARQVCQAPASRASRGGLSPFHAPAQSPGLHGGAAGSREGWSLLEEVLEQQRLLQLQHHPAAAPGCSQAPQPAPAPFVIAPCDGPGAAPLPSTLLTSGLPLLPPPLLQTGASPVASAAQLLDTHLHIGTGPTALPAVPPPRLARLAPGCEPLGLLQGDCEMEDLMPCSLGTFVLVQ

Compound | IC50 (SIK1) [nM] | IL-10 FCmax median [1]
COc1cc(-c2cnc3cc(OCCN(C)C)ccn23)cc2c1C(=O)N(CC(F)(F)F)CC2 [Cpd 18, 6-[7-[2-(dimethylamino)ethoxy]imidazo[1,2-a]pyridin-3-yl]-8-methoxy-2-(2,2,2-trifluoroethyl)-3,4-dihydroisoquinolin-1-one] | > 500 | ++ (>1.5-4.5)
COc1cc(-c2cnc3cc(OC[C@H]4COCCO4)ccn23)cc2c1C(=O)N(CC(F)(F)F)CC2 [Cpd 86, 6-[7-[[(2R)-1,4-dioxan-2-yl]methoxy]imidazo[1,2-a]pyridin-3-yl]-8-methoxy-2-(2,2,2-trifluoroethyl)-3,4-dihydroisoquinolin-1-one] | 100 to 500 | ++ (>1.5-4.5)
COc1cc(-c2cnc3cc(OCCC4CCCN4C)ccn23)cc2c1C(=O)N(CC(F)(F)F)CC2 (stereo not shown) [Cpd 122, 8-methoxy-6-[7-[2-(1-methylpyrrolidin-2-yl)ethoxy]imidazo[1,2-a]pyridin-3-yl]-2-(2,2,2-trifluoroethyl)-3,4-dihydroisoquinolin-1-one] | 100 to 500 | ++ (>1.5-4.5)
CN(C)CCOc1ccn2c(-c3cc4c(c(OC(F)F)c3)C(=O)N(CC(F)F)CC4)cnc2c1 [Cpd 150, 2-(2,2-difluoroethyl)-8-(difluoromethoxy)-6-[7-[2-(dimethylamino)ethoxy]imidazo[1,2-a]pyridin-3-yl]-3,4-dihydroisoquinolin-1-one] | 100 to 500 | ++ (>1.5-4.5)
CNc1cc(-c2cnc3cc(OCCN(C)C)ccn23)cc(OC(F)F)c1C(=O)NCC(F)(F)F [Cpd 165, 2-(difluoromethoxy)-4-[7-[2-(dimethylamino)ethoxy]imidazo[1,2-a]pyridin-3-yl]-6-(methylamino)-N-(2,2,2-trifluoroethyl)benzamide] | 100 to 500 | ++ (>1.5-4.5)
COc1cc(-c2cnc3cc(OCCN4CCOC[C@@H]4C)ccn23)cc2c1C(=O)N(CC(F)(F)F)CC2 [Cpd 257, 8-methoxy-6-[7-[2-[(3S)-3-methylmorpholin-4-yl]ethoxy]imidazo[1,2-a]pyridin-3-yl]-2-(2,2,2-trifluoroethyl)-3,4-dihydroisoquinolin-1-one] | 100 to 500 | ++ (>1.5-4.5)
CCNCCOc1ccn2c(-c3cc(OC)c(C(=O)NC4CC4)c(OC(F)F)c3)cnc2c1 [compound 37, N-cyclopropyl-2-(difluoromethoxy)-4-[7-[2-(ethylamino)ethoxy]imidazo[1,2-a]pyridin-3-yl]-6-methoxy-benzamide] | 10 to 100 | ++ (>1.5-4.5)
COc1cc(-c2cnc3cc(OCC4CN(C)C4)ccn23)cc2c1C(=O)N(CC(F)(F)F)CC2 [compound 39, 8-methoxy-6-[7-[(1-methylazetidin-3-yl)methoxy]imidazo[1,2-a]pyridin-3-yl]-2-(2,2,2-trifluoroethyl)-3,4-dihydro isoquinolin-1-one] | 100 to 500 | ++ (>1.5-4.5)
COc1cc(-c2cnc3cc(OCCN4CCCCC4)ccn23)cc2c1C(=O)N(CC(F)(F)F)CC2 [compound 40, 8-methoxy-6-[7-[2-(1-piperidyl)ethoxy]imidazo [1,2-a]pyridin-3-yl]-2-(2,2,2-trifluoroethyl)-3,4-dihydroisoquinolin-1-one] | > 500 | ++ (>1.5-4.5)
COc1cc(-c2cnc3cc(OCCN4CCS(=O)(=O)CC4)ccn23)cc2c1C(=O)N(CC(F)(F)F)CC2 [compound 41, 6-[7-[2-(1,1-dioxo-1,4-thiazinan-4-yl)ethoxy]imidazo[1,2-a]pyridin-3-yl]-8-methoxy-2-(2,2,2-trifluoroethyl)-3,4-dihydroisoquinolin-1-one] | 100 to 500 | ++ (>1.5-4.5)
COc1cc(-c2cnc3cc(OCc4ccnn4C)ccn23)cc(OC(F)F)c1C(=O)NC1CC1 [compound 44, N-cyclopropyl-2-(difluoromethoxy)-6-methoxy-4-[7-[(2-methylpyrazol-3-yl)methoxy]imidazo[1,2-a]pyridin-3-yl] benzamide] | 10 to 100 | + (≤1.5)
COc1cc(-c2cnc3cc(OC(C)C(F)(F)F)ccn23)cc(OC(F)F)c1C(=O)NC1CC1 (stereo not shown) [compound 45, N-cyclopropyl-2-(difluoromethoxy)-6-methoxy-4-[7-(2,2,2-trifluoro-1-methyl-ethoxy)imidazo[1,2-a]pyridin-3-yl]benzamide] | 100 to 500 | + (≤1.5)
COc1cc(-c2cnc3cc(OCCN(C)C)ccn23)cc2c1C(=O)N(CC(F)F)CC2 [compound 54, 2-(2,2-difluoroethyl)-6-[7-[2-(dimethylamino)ethoxy]imidazo [1,2-a]pyridin-3-yl]-8-methoxy-3,4-dihydro isoquinolin-1-one] | > 500 | ++ (>1.5-4.5)

Continued, in another order:

IC50 (SIK1) [nM] | Compound | IL-10 FCmax median [1]
10 to 100 | COc1cc(-c2cnc3cc(OCCCN4CC(O)C4)ccn23)cc(OC(F)F)c1C(=O)NC1CC1 [Cpd 286, N-cyclopropyl-2-(difluoromethoxy)-4-[7-[3-(3-hydroxyazetidin-1-yl)propoxy]imidazo[1,2-a]pyridin-3-yl]-6-methoxy-benzamide] | ++ (>1.5-4.5)
10 to 100 | COc1cc(-c2cnc3cc(OCC(O)CN4CCCCC4)ccn23)cc(OC(F)F)c1C(=O)NC1CC1 (stereo not shown) [Cpd 321, N-cyclopropyl-2-(difluoromethoxy)-4-[7-[2-hydroxy-3-(1-piperidyl)propoxy]imidazo [1,2-a]pyridin-3-yl]-6-methoxy-benzamide] | ++ (>1.5-4.5)
10 to 100 | COc1cc(-c2cnc3cc(OCC(O)CN4CCOCC4)ccn23)cc(OC(F)F)c1C(=O)NC1CC1 (stereo not shown) [Cpd 330, N-cyclopropyl-2-(difluoromethoxy)-4-[7-(2-hydroxy-3-morpholino-propoxy)imidazo[1,2-a]pyridin-3-yl]-6-methoxy-benzamide] | ++ (>1.5-4.5)
10 to 100 | COc1cc(-c2cnc3cc(OCCN4CCCCC4)ccn23)cc(OC(F)F)c1C(=O)NC1CC1 [compound 10, N-cyclopropyl-2-(difluoromethoxy)-6-methoxy-4-[7-[2-(1-piperidyl)ethoxy]imidazo [1,2-a]pyridin-3-yl]benzamide] | ++ (>1.5-4.5)
10 to 100 | COc1cc(-c2cnc3cc(OCCC4CCCN4C)ccn23)cc(OC(F)F)c1C(=O)NC1CC1 (stereo not shown) [compound 17, N-cyclopropyl-2-(difluoromethoxy)-6-methoxy-4-[7-[2-(1-methylpyrrolidin-2-yl)ethoxy]imidazo[1,2-a]pyridin-3-yl]benzamide] | ++ (>1.5-4.5)
100 to 500 | COc1cc(-c2cnc3cc(OCC4CCCCN4C)ccn23)cc(OC(F)F)c1C(=O)NC1CC1 (stereo not shown) [compound 23, N-cyclopropyl-2-(difluoromethoxy)-6-methoxy-4-[7-[(1-methyl-2-piperidyl)methoxy]imidazo[1,2-a]pyridin-3-yl]benzamide] | ++ (>1.5-4.5)
100 to 500 | COc1cc(-c2cnc3cc(OC[C@H]4CCCN4C)ccn23)cc(OC(F)F)c1C(=O)NC1CC1 [compound 81, N-cyclopropyl-2-(difluoromethoxy)-6-methoxy-4-[7-[[(2R)-1-methylpyrrolidin-2-yl]methoxy]imidazo[1,2-a]pyridin-3-yl]benzamide] | ++ (>1.5-4.5)
